From patent US10648038B2, “Biomarkers to identify patients that will respond to treatment and treating such patients” (Acetylon Pharmaceuticals, Inc., priority 2012, dated 2020)

Test system: 65 cancer cell lines
Test: Cell viability screening of a panel of 65 cancer cell lines, association with cancer type and gene mutation
Format: cell-based, human
Method: 65 cancer cell lines (including 12 of breast cancer, 11 of hematologic cancer, 9 of colorectal cancer, 6 of lung cancer, 6 of skin cancer, 4 brain cancer, 3 of renal cancer, 3 of liver cancer, 3 of prostate cancer, 3 of pancreatic cancer, 3 of ovarian cancer, and 2 of stomach cancer) were selected for analysis. Each of the cell lines was cultured and treated with the HDAC6 inhibitor, Compound A, with or without the proteasome inhibitor, bortezomib, before their cell viabilities were measured at the end of treatments. The sensitivities of the cell lines were described using the concentration of Compound A that provides 50% inhibition of cell viabilities (IC50). In all analyses, the logarithm of drug sensitivity values (i.e., Log [IC50]) was used, which is more normally distributed than the raw IC50 values. This is because most standard statistical tests (e.g., t-test and correlation analysis) assume the normal distribution of data points.
For the association tests of gene mutations, 50 common oncogene/tumor suppressor genes were selected to analyze the results. Mutation profiles of the cell lines were downloaded from the Sanger COSMIC DB on the Internet: www dot sanger dot ac dot uk/cosmic. For each gene locus, the “Fisher's Exact Test” was used to calculate statistical significance (p<0.05) of association between the genotype and the cell sensitivities to the treatments.

[1] = most cell lines of the panel, agent alone

## O=C(CCCCCCNC(=O)c1cnc(N(c2ccccc2)c2ccccc2)nc1)NO [Compound A, 2-(diphenylamino)-N-(7-(hydroxyamino)-7-oxoheptyl)pyrimidine-5-carboxamide]
A number of lymphoma and leukemia cell lines, single agent
  sensitivity of cell lines to treatment (cell viability): substantial sensitivity
Breast cancer cell lines with Her2 protein overexpression (ERBB2 amplification), Fisher's Exact Test p<0.05
  sensitivity of cell lines to treatment (cell viability): sensitive
Breast cancer cell lines, basal-type or triple negative, Fisher's Exact Test p<0.05
  sensitivity of cell lines to treatment (cell viability): resistant
Cell lines for hematologic malignant cancer, Compound A alone
  sensitivity of cell lines to treatment (cell viability): most sensitive
Lymphoma cells, compared with other cell groups of the 65 lines
  sensitivity of cell lines to treatment (cell viability): most sensitive
[1]
  sensitivity of cell lines to treatment (cell viability): resistant

## CC(C)C[C@H](NC(=O)[C@H](Cc1ccccc1)NC(=O)c1cnccn1)B(O)O [bortezomib, reference compound]
[1]
  sensitivity of cell lines to treatment (cell viability): resistant
